In ChEMBL document CHEMBL3860050, “Triterpenoids from Momordica balsamina: Reversal of ABCB1-mediated multidrug resistance” (Bioorg Med Chem, 2016):

How the values were obtained:
[1] = biological target: T1, ATP-dependent translocase ABCB1 (Homo sapiens, UniProt P08183); test: Inhibition of MDR1-mediated efflux-pump activity in mouse L5178Y cells expressing human MDR1 assessed as mean fluorescence intensity at 20 uM preincubated for 10 mins followed by rhodamine-123 addition measured after 20 mins by flow cytometry (reference value: 7.1 to 18.6); assay type: cell-based
T1 sequence (P08183 whole entry): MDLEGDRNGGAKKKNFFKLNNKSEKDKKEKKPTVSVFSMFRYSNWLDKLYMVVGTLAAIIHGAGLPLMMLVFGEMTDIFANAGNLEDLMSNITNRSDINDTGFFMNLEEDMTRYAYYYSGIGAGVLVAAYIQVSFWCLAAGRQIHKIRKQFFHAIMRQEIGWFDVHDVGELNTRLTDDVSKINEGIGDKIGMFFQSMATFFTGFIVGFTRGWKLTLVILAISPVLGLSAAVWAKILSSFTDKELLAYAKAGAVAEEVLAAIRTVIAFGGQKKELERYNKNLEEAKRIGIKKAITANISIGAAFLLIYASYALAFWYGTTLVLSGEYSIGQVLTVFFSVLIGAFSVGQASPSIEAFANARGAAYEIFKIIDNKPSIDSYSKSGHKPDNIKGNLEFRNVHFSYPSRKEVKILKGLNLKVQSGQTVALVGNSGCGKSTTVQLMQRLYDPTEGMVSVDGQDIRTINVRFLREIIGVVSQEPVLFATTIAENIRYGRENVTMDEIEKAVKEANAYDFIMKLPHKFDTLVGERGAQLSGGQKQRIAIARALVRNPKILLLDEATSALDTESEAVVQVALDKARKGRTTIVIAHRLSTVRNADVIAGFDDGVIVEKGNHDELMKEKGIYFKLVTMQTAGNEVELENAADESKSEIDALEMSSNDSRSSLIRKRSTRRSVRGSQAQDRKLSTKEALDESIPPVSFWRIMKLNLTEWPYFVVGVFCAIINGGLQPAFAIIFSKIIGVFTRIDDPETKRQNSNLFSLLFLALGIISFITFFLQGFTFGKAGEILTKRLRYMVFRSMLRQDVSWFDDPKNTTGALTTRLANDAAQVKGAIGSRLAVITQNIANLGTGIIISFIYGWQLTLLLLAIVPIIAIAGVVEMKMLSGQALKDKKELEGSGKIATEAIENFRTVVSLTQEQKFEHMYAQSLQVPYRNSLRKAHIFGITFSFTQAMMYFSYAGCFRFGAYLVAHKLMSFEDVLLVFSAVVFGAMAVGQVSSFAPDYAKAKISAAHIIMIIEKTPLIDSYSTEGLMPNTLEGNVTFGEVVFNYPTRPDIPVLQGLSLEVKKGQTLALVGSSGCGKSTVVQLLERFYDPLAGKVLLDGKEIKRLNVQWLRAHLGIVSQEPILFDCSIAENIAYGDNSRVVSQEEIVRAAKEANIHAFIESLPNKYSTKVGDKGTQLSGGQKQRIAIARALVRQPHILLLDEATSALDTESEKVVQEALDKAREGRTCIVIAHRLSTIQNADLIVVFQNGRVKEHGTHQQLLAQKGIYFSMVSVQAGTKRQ

[2] = biological target: T1, ATP-dependent translocase ABCB1; test: Inhibition of MDR1-mediated efflux-pump activity in mouse L5178Y cells expressing human MDR1 assessed as fluorescence activity ratio at 20 uM preincubated for 10 mins followed by rhodamine-123 addition measured after 20 mins by flow cytometry; assay type: cell-based
[3] = biological target: T1, ATP-dependent translocase ABCB1; test: Inhibition of MDR1-mediated efflux-pump activity in mouse L5178Y cells expressing human MDR1 assessed as forward scattered light at 2 uM preincubated for 10 mins followed by rhodamine-123 addition measured after 20 mins by flow cytometry (reference value: 455.7 to 509.9); assay type: cell-based
[4] = biological target: T1, ATP-dependent translocase ABCB1; test: Inhibition of MDR1-mediated efflux-pump activity in mouse L5178Y cells expressing human MDR1 assessed as side scattered light at 2 uM preincubated for 10 mins followed by rhodamine-123 addition measured after 20 mins by flow cytometry (reference value: 194.6 to 286.4); assay type: cell-based
[5] = Antiproliferative activity against mouse L5178Y cells expressing human MDR1 measured after 72 hrs by MTT assay; assay type: functional, cell-based
[6] = biological target: T1, ATP-dependent translocase ABCB1; test: Inhibition of MDR1-mediated efflux-pump activity in mouse L5178Y cells expressing human MDR1 assessed as mean fluorescence intensity at 2 uM preincubated for 10 mins followed by rhodamine-123 addition measured after 20 mins by flow cytometry (reference value: 7.1 to 18.6); assay type: cell-based
[7] = biological target: T1, ATP-dependent translocase ABCB1; test: Inhibition of MDR1-mediated efflux-pump activity in mouse L5178Y cells expressing human MDR1 assessed as side scattered light at 20 uM preincubated for 10 mins followed by rhodamine-123 addition measured after 20 mins by flow cytometry (reference value: 194.6 to 286.4); assay type: cell-based
[8] = biological target: T1, ATP-dependent translocase ABCB1; test: Inhibition of MDR1-mediated efflux-pump activity in mouse L5178Y cells expressing human MDR1 assessed as fluorescence activity ratio at 2 uM preincubated for 10 mins followed by rhodamine-123 addition measured after 20 mins by flow cytometry; assay type: cell-based
[9] = biological target: T1, ATP-dependent translocase ABCB1; test: Inhibition of MDR1-mediated efflux-pump activity in mouse L5178Y cells expressing human MDR1 assessed as forward scattered light at 20 uM preincubated for 10 mins followed by rhodamine-123 addition measured after 20 mins by flow cytometry (reference value: 455.7 to 509.9); assay type: cell-based
[10] = Antiproliferative activity against mouse L5178Y cells measured after 72 hrs by MTT assay; assay type: functional, cell-based

Row | Structure (SMILES) | Flu intensity [1] | Ratio [2] | Activity [3] | Activity [4] | IC50 [5] [µM] | Flu intensity [6] | Activity [7] | Ratio [8] | Activity [9] | IC50 [10] [µM]
1 | CO[C@H]1C=C2[C@@H](CC[C@H](OC(=O)/C=C/c3ccccc3)C2(C)C)[C@]2(C)CC[C@]3(C)[C@@H]([C@H](C)C[C@H](C=C(C)C)OC(=O)/C=C/c4ccccc4)CC[C@@]3(C)[C@H]12 [KARAVOATE P] | 18.1 | 2.7 | 528 | 191.2 | > 133 | 6.9 | 177 | 1 | 503 | > 133
2 | CC(C)=C[C@H](O)C[C@@H](C)[C@H]1CC[C@@]2(C)[C@@H]3[C@@H](O)C=C4[C@@H](CC[C@H](O)C4(C)C)[C@]3(C)CC[C@]12C [BALSAMINOL F] | – | – | 490.7 | 202.1 | 20.8 | 20.1 | – | 2.6 | – | 8.3
3 | CC(C)=C[C@H](O)C[C@@H](C)[C@H]1CC[C@@]2(C)[C@@H]3C(O[C@H]4O[C@@H](CO)[C@H](O)[C@@H](O)[C@@H]4O)C=C4[C@@H](CC[C@H](O)C4(C)C)[C@]3(C)CC[C@]12C (stereo partly specified) | 23.6 | 2.3 | 557.9 | 235.6 | 54.2 | 10.7 | 236.9 | 1 | 573 | 19.2
4 | CC(=O)C[C@@H](C)[C@H]1CC[C@@]2(C)[C@@H]3C(=O)C=C4[C@@H](CC[C@H](O)[C@]4(C)CO)[C@]3(C)CC[C@]12C [BALSAMINOL D] | 25.9 | 1.9 | 439.9 | 254.3 | 67.1 | 10.3 | 256.5 | 1 | 434.2 | 27.8
5 | CO[C@H]1C=C2[C@@H](CC[C@H](O)C2(C)C)[C@]2(C)CC[C@]3(C)[C@@H]([C@H](C)C[C@H](C=C(C)C)OC(=O)c4ccc([N+](=O)[O-])cc4)CC[C@@]3(C)[C@H]12 [KARAVOATE I] | 25.9 | 3.9 | 537.3 | 184.1 | 60.4 | 14.3 | 182.9 | 2.1 | 534.1 | 29
6 | CO[C@H]1C=C2[C@@H](CC[C@H](O)C2(C)C)[C@]2(C)CC[C@]3(C)[C@@H]([C@H](C)C[C@H](C=C(C)C)OC(=O)CCC(=O)O)CC[C@@]3(C)[C@H]12 | 28 | 4.2 | 545.2 | 184.1 | 40.6 | 7.5 | 185.6 | 1.1 | 540.1 | 20.8
7 | CO[C@H]1C=C2[C@@H](CC[C@H](OC(=O)c3ccccc3)C2(C)C)[C@]2(C)CC[C@]3(C)[C@@H]([C@H](C)C[C@H](C=C(C)C)OC(=O)c4ccccc4)CC[C@@]3(C)[C@H]12 [KARAVOATE H] | 10.4 | 1.3 | 504.9 | 200.4 | 96.4 | 9 | 215.4 | 1.2 | 519.8 | > 133
8 | CC(C)=C[C@@H](C[C@@H](C)[C@H]1CC[C@@]2(C)[C@@H]3[C@@H](OC(=O)c4ccccc4)C=C4[C@@H](CC[C@H](OC(=O)c5ccccc5)C4(C)C)[C@]3(C)CC[C@]12C)OC(=O)c1ccccc1 [TRIBENZOYLBALSAMINOL F] | 7.1 | 1.1 | 524.2 | 188.7 | 87.9 | 7.6 | 181.7 | 1.3 | 538.1 | 74.7
9 | CO[C@H]1C=C2[C@@H](CC[C@H](OC(=O)c3ccc(Cl)cc3)C2(C)C)[C@]2(C)CC[C@]3(C)[C@@H]([C@H](C)C[C@H](C=C(C)C)OC(=O)c4ccc(Cl)cc4)CC[C@@]3(C)[C@H]12 [KARAVOATE L] | 9 | 1.2 | 504.6 | 206.4 | > 133 | 8.1 | 202.4 | 1 | 512.2 | > 133
10 | CO[C@H]1C=C2[C@@H](CC[C@H](O)C2(C)C)[C@]2(C)CC[C@]3(C)[C@@H]([C@H](C)C[C@H](C=C(C)C)OC(=O)c4ccc(Cl)cc4)CC[C@@]3(C)[C@H]12 [KARAVOATE K] | 12.2 | 1.6 | 517.9 | 207 | 93.2 | 10.7 | 210.8 | 1.4 | 511.1 | 63.4
11 | C[C@H](C/C=C/C(C)(C)O)[C@H]1CC[C@@]2(C)[C@@H]3[C@@H](O)C=C4[C@@H](CC[C@H](O)C4(C)C)[C@]3(C)C[C@@H](O)[C@]12C [CUCURBALSAMINOL A] | 38.2 | 2.9 | 427.2 | 254.7 | 63.4 | 8.8 | 252 | 0.7 | 429 | 48.2
12 | COc1ccc(C(=O)O[C@@H](C=C(C)C)C[C@@H](C)[C@H]2CC[C@@]3(C)[C@@H]4[C@@H](OC)C=C5[C@@H](CC[C@H](O)C5(C)C)[C@]4(C)CC[C@]23C)cc1 [KARAVOATE M] | 11.4 | 1.7 | 526 | 192.3 | 87.5 | 12.3 | 181.8 | 1.8 | 531.9 | 59.4
13 | COc1ccc(C(=O)O[C@H]2CC[C@@H]3C(=C[C@H](OC)[C@@H]4[C@@]3(C)CC[C@]3(C)[C@@H]([C@H](C)C[C@H](C=C(C)C)OC(=O)c5ccc(OC)cc5)CC[C@@]43C)C2(C)C)cc1 [KARAVOATE N] | 9.7 | 1.4 | 528.1 | 184.1 | > 133 | 6.3 | 186.7 | 0.9 | 548.9 | 74.6
14 | C=C(C)[C@@H](O)[C@H](O)C[C@@H](C)[C@H]1CC[C@@]2(C)[C@@H]3[C@@H](O)C=C4[C@@H](CC[C@H](O)[C@]4(C)CO)[C@]3(C)CC[C@]12C [BALSAMINAPENTAOL A] | 38.2 | 2.9 | 427.2 | 254.7 | 29.3 | 8.8 | 252 | 0.7 | 429 | 13.7
